Some results are limits rather than exact numbers.

Assay [1] has as its system 3T3 cells. Briefly: MTT cell proliferation assay, 3T3. Format: cell-based, mouse. Particulars: Mus musculus, NIH3T3, 3T3 cells, approximately 64-72 hours incubation; read-out: MTT Assay IC50, 3T3. Put shortly:
(§1)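 Absorbance at 490 nm of solubilized formazan, produced during roughly 4 h MTT incubation, gave percent inhibition relative to negative control. Compounds spanned eight concentrations between 1 nM and 30 μM on cells plated overnight at 5,000-10,000 per well.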

The test system of assay [2] is Z138 cells. Briefly: MTT cell proliferation assay, Z138. Format: cell-based. Particulars: Homo sapiens, Z-138, Z138 cells, approximately 64-72 hours incubation; read-out: MTT Assay IC50, Z138. The procedure, abridged: as §1
(Formazan colour is commonly taken as a measure of viable cells.)

In assay [3] the test system is MS751 cells. Briefly: MTT cell proliferation assay, MS751. Format: cell-based, human. Particulars: Homo sapiens, MS751, MS751 cells, approximately 64-72 hours incubation; read-out: MTT Assay IC50, MS751. Put shortly: as §1

Regarding `Nc1ccc(CNC(=O)/C=C/C2Cc3cc(-c4ccc(S(=O)(=O)N5CCOCC5)cc4)cc(Cl)c3O2)cn1` (stereo not drawn) [Compound 350, (E)-N-((6-aminopyridin-3-yl)methyl)-3-(7-chloro-5-(4-(morpholinosulfonyl)phenyl)-2,3-dihydrobenzofuran-2-yl)acrylamide], the IC50 – broadly, the concentration that gives 50% inhibition – in assay [1] was 0.1 to 5 µM; in assay [2], above 30 µM; in assay [3], 0.1 to 5 µM.
Take `Nc1ccc(CNC(=O)/C=C/C2Cc3cc(-c4ccc(C(=O)N5CC(F)(F)C5)cc4)cc(Cl)c3O2)cn1` (stereo not drawn) [Compound 351, (E)-N-((6-aminopyridin-3-yl)methyl)-3-(7-chloro-5-(4-(3,3-difluoroazetidine-1-carbonyl)phenyl)-2,3-dihydrobenzofuran-2-yl)acrylamide]: the IC50 in assay [1], in assay [2] and in assay [3] was 0.1 to 5 µM in each case.
With `Nc1ccc(CNC(=O)/C=C/C2Cc3c(-c4ccc(C(=O)N5CC(F)C5)cc4)ccc(Cl)c3O2)cn1` (stereo not drawn) [Compound 352, (E)-N-((6-aminopyridin-3-yl)methyl)-3-(7-chloro-4-(4-(3-fluoroazetidine-1-carbonyl)phenyl)-2,3-dihydrobenzofuran-2-yl)acrylamide], the IC50 in assay [1] is 5 to 30 µM; in assay [2], above 30 µM; in assay [3], 0.1 to 5 µM.
In the same order, the values of `CCOC(=O)CCOCCOCCC(=O)N1CCN(C(=O)c2ccc(-c3cc(Cl)c4c(c3)CC(CNC(=O)/C=C/c3ccc(N)nc3)O4)cc2)CC1` (stereo not drawn) [Compound 354, (E)-ethyl 3-(2-(3-(4-(4-(2-((3-(6-aminopyridin-3-yl)acrylamido)methyl)-7-chloro-2,3-dihydrobenzofuran-5-yl)benzoyl)piperazin-1-yl)-3-oxopropoxy)ethoxy)propanoate] are below 0.1 µM, 5 to 30 µM and below 0.1 µM.
In the same order, the values of `CC(C)(C)c1ccc(-c2ccc(C(=O)N3CCOCC3)cc2)c2c1OC(CNC(=O)/C=C/c1ccc(N)nc1)C2` (stereo not drawn) [Compound 355, (E)-3-(6-aminopyridin-3-yl)-N-((7-(tert-butyl)-4-(4-(morpholine-4-carbonyl)phenyl)-2,3-dihydrobenzofuran-2-yl)methyl)acrylamide] are 0.1 to 5 µM, above 30 µM and above 30 µM.
As to `Nc1ccc(CNC(=O)/C=C/C2Cc3cc(-c4cccc(S(=O)(=O)N5CCOCC5)c4)cc(Cl)c3O2)cn1` (stereo not drawn) [Compound 357, (E)-N-((6-aminopyridin-3-yl)methyl)-3-(7-chloro-5-(3-(morpholinosulfonyl)phenyl)-2,3-dihydrobenzofuran-2-yl) acrylamide], the IC50 in assay [1] is below 0.1 µM; in assay [2], 0.1 to 5 µM; in assay [3], below 0.1 µM.
For `Nc1ccc(CNC(=O)/C=C/C2Cc3cc(-c4ccc(C(=O)N5CC[C@@H](F)C5)cc4)cc(Cl)c3O2)cn1` (stereo partly drawn) [Compound 358, (E)-N-((6-aminopyridin-3-yl)methyl)-3-(7-chloro-5-(4-((R)-3-fluoropyrrolidine-1-carbonyl)phenyl)-2,3-dihydrobenzofuran-2-yl)acrylamide], the half-maximal inhibitory concentration (IC50) in assay [1] is 0.1 to 5 µM; in assay [2] it was above 30 µM; in assay [3] it was 0.1 to 5 µM.
Consider `Nc1ccc(CNC(=O)/C=C/C2Cc3cc(-c4ccc(C(=O)N5CC[C@H](F)C5)cc4)cc(Cl)c3O2)cn1` (stereo partly drawn) [Compound 359, (E)-N-((6-Aminopyridin-3-yl)methyl)-3-(7-chloro-5-(4-((S)-3-fluoropyrrolidine-1-carbonyl)phenyl)-2,3-dihydrobenzofuran-2-yl)acrylamide], for which the IC50 in assay [1] was 5 to 30 µM; in assay [2], above 30 µM; in assay [3], 0.1 to 5 µM.
`Nc1ccc(CNC(=O)/C=C/C2Cc3cc(-c4ccccc4S(=O)(=O)N4CCOCC4)cc(Cl)c3O2)cn1` (stereo not drawn) [Compound 360, (E)-N-((6-aminopyridin-3-yl)methyl)-3-(7-chloro-5-(2-(morpholinosulfonyl)phenyl)-2,3-dihydrobenzofuran-2-yl)acrylamide]: the IC50 was below 0.1 µM in assay [1], 0.1 to 5 µM in assay [2] and below 0.1 µM in assay [3].
For the molecule `Nc1ccc(CNC(=O)/C=C/C2Cc3cc(-c4ccc(C(=O)N5CC(F)C5)cc4)cc(Cl)c3O2)cn1` (stereo not drawn) [Compound 361, (E)-N-((6-Aminopyridin-3-yl)methyl)-3-(7-chloro-5-(4-(3-fluoroazetidine-1-carbonyl)phenyl)-2,3-dihydrobenzofuran-2-yl)acrylamide], the IC50 in assay [1], in assay [2] and in assay [3] was 0.1 to 5 µM throughout.
On to `CC1(C)CN(C(=O)c2ccc(-c3cc(Cl)c4c(c3)CC(/C=C/C(=O)NCc3ccc(N)nc3)O4)cc2)C1` (stereo not drawn) [Compound 362, (E)-N-((6-aminopyridin-3-yl)methyl)-3-(7-chloro-5-(4-(3,3-dimethylazetidine-1-carbonyl)phenyl)-2,3-dihydrobenzofuran-2-yl)acrylamide], for which the IC50 in assay [1] was below 0.1 µM; in assay [2], above 30 µM; in assay [3], below 0.1 µM.
In the case of `Nc1ccc(CNC(=O)/C=C/C2Cc3cc(-c4ccc(S(=O)(=O)N5CC(F)(F)C5)cc4)cc(Cl)c3O2)cn1` (stereo not drawn) [Compound 363, (E)-N-((6-aminopyridin-3-yl)methyl)-3-(7-chloro-5-(4-(3,3-difluoroazetidin-1-ylsulfonyl)phenyl)-2,3-dihydrobenzofuran-2-yl)acrylamide], the IC50 in assay [1] was 5 to 30 µM; in assay [2], above 30 µM; in assay [3], above 30 µM.
For `Nc1ccc(CNC(=O)/C=C/C2Cc3c(-c4ccc(S(=O)(=O)N5CCOCC5)cc4)ccc(Cl)c3O2)cn1` (stereo not drawn) [Compound 364, (E)-N-((6-aminopyridin-3-yl)methyl)-3-(7-chloro-4-(4-(morpholinosulfonyl)phenyl)-2,3-dihydrobenzofuran-2-yl)acrylamide], the IC50 in assay [1] was 5 to 30 µM; in assay [2], above 30 µM; in assay [3] it was 0.1 to 5 µM.
The matching figures for `[2H]C1([2H])c2cc(-c3ccc(C(=O)N4CCOCC4)cc3)cc(Cl)c2OC1CNC(=O)/C=C/c1ccc(N)nc1` (stereo not drawn) [Compound 365, (E)-3-(6-aminopyridin-3-yl)-N-((7-chloro-3,3-dideutero-5-(4-(morpholine-4-carbonyl)phenyl)-2,3-dihydrobenzofuran-2-yl)methyl)acrylamide]: below 0.1 µM, 0.1 to 5 µM and below 0.1 µM.
The matching figures for `CC1(F)CN(C(=O)c2ccc(-c3cc(Cl)c4c(c3)CC(/C=C/C(=O)NCc3ccc(N)nc3)O4)cc2)C1` (stereo not drawn) [Compound 366, (E)-N-((6-aminopyridin-3-yl)methyl)-3-(7-chloro-5-(4-(3-fluoro-3-methylazetidine-1-carbonyl)phenyl)-2,3-dihydrobenzofuran-2-yl)acrylamide]: 0.1 to 5 µM, above 30 µM and above 30 µM.
Take `CC1(C)COCCN1C(=O)c1ccc(-c2cc(Cl)c3c(c2)CC(/C=C/C(=O)NCc2ccc(N)nc2)O3)cc1` (stereo not drawn) [Compound 367, (E)-N-((6-aminopyridin-3-yl)methyl)-3-(7-chloro-5-(4-(3,3-dimethylmorpholine-4-carbonyl)phenyl)-2,3-dihydrobenzofuran-2-yl)acrylamide]: the IC50 was 0.1 to 5 µM in assay [1], below 0.1 µM in assay [2] and below 0.1 µM in assay [3].
Turning to `CC1(C)COCCN1C(=O)c1ccc(-c2cc(Cl)c3c(c2)CC(/C=C/C(=O)NCc2ccc(N)nc2)O3)nc1` (stereo not drawn) [Compound 368, (E)-N-((6-aminopyridin-3-yl)methyl)-3-(7-chloro-5-(5-(3,3-dimethylmorpholine-4-carbonyl)pyridin-2-yl)-2,3-dihydrobenzofuran-2-yl)acrylamide], the IC50 in assay [1] is 0.1 to 5 µM; in assay [2], below 0.1 µM; in assay [3] it was below 0.1 µM.
Turning to `CC(=O)c1ccc(-c2cc(Cl)c3c(c2)CC(CNC(=O)CCc2cnc(N)c(Br)c2)O3)s1` (stereo not drawn) [Compound 371, N-((5-(5-acetylthiophen-2-yl)-7-chloro-2,3-dihydrobenzofuran-2-yl)methyl)-3-(6-amino-5-bromopyridin-3-yl)propanamide], the IC50 was above 30 µM in assay [1], 5 to 30 µM in assay [2] and 5 to 30 µM in assay [3].
Regarding `Nc1ccc(/C=C/C(=O)NCC2Cc3cc(-c4ccc(C(=O)N5CCOCC5)c(F)c4F)cc(Cl)c3O2)cn1` (stereo not drawn) [Compound 901, (E)-3-(6-aminopyridin-3-yl)-N-((7-chloro-5-(2,3-difluoro-4-(morpholine-4-carbonyl)phenyl)-2,3-dihydrobenzofuran-2-yl)methyl)acrylamide], the IC50 was 0.1 to 5 µM in assay [1], below 0.1 µM in assay [2] and below 0.1 µM in assay [3].
As for `Nc1ccc(/C=C/C(=O)NCC2Cc3cc(-c4c(F)cc(C(=O)N5CCOCC5)cc4F)cc(Cl)c3O2)cn1` (stereo not drawn) [Compound 902, (E)-3-(6-aminopyridin-3-yl)-N-((7-chloro-5-(2,6-difluoro-4-(morpholine-4-carbonyl)phenyl)-2,3-dihydrobenzofuran-2-yl)methyl)acrylamide], the IC50 in assay [1] was 0.1 to 5 µM; in assay [2], below 0.1 µM; in assay [3], below 0.1 µM.
Regarding `Nc1ccc(/C=C/C(=O)NCC2Cc3cc(-c4ccc(C(=O)N5CCOCC5)c(F)c4)cc(Cl)c3O2)cn1` (stereo not drawn) [Compound 903, (E)-3-(6-aminopyridin-3-yl)-N-((7-chloro-5-(3-fluoro-4-(morpholine-4-carbonyl)phenyl)-2,3-dihydrobenzofuran-2-yl)methyl)acrylamide], the IC50 was 0.1 to 5 µM in assay [1], below 0.1 µM in assay [2] and below 0.1 µM in assay [3].
On to `Nc1ccc(/C=C/C(=O)NCC2Cc3cc(-c4ccc(C(=O)NNc5cnccn5)cc4)cc(Cl)c3O2)cn1` (stereo not drawn) [Compound 904, (E)-3-(6-aminopyridin-3-yl)-N-((7-chloro-5-(4-(2-(pyrazin-2-yl) hydrazine-1-carbonyl)phenyl)-2,3-dihydrobenzofuran-2-yl)methyl)acrylamide], for which the IC50 is 0.1 to 5 µM in assay [1], below 0.1 µM in assay [2] and below 0.1 µM in assay [3].

Source of the values: patent US9938258B2 (Karyopharm Therapeutics Inc., priority 2012, dated 2018).
